# According to patent US10125134B2 (Mirati Therapeutics, Inc., priority 2016, dated 2018):
# Read-outs that look alike come from different tables or passages of the source.
# Experiments:
# [1] = tested on: NCI-H358 cells (express KRas G12C), Phospho-ERK; assay: Cellular inhibition of KRas G12C: Phospho-ERK in NCI-H358 cells; type: cell-based; conditions: Homo sapiens
# How it was run: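 IC50 derived by 4-parameter fit of GAPDH-normalized pERK(Thr202/Tyr204) signal, as percent of DMSO control. Signal came from in-cell immunodetection with infrared secondaries after 3 h compound exposure of KRas G12C NCI-H358 cells at 0.5% DMSO.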
# KRas G12C = KRas G12C (Homo sapiens, UniProt P01116, C118S/C51S/C80L/G12C); assay: KRas G12C Modification Assay (LCMS detection of covalent adduct); type: binding
# How it was run: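 Covalent modification was read by reverse-phase LC/MS of intact protein after compound exposure, each reaction stopped at its time point with 25 mM acetic acid. Unmodified-protein signal, taken as percent of total, was normalised to untreated protein and reported as POC.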
# [2] = NCI-H358, 3 h, pERK(Thr202/Tyr204) normalized with GAPDH, NCI-H358 cells, 3 hours, read-out: IC50
# [3] = normalized percent of control, tested at 5 μM concentration for 3 hours
# [4] = pERK(Thr202/Tyr204) normalized with GAPDH, NCI-H358 cells, 3 hours, read-out: IC50
SMILES,POC (KRas G12C; [3]),"IC50 ([1]; NCI-H358, 3 h)",POC (KRas G12C; 5 µM),"IC50 [1, 2]","IC50 [1, 4]"
"C=CC(=O)N1CCN(c2nc(OC[C@@H]3CCCN3C)nc3c2CCN(c2c(C(C)C)ccc4[nH]ncc24)C3)CC1 [Example 248, (S)-1-(4-(7-(5-isopropyl-1H-indazol-4-yl)-2-((1-methylpyrrolidin-2-yl)methoxy)-5,6,7,8-tetrahydropyrido[3,4-d]pyrimidin-4-yl)piperazin-1-yl)prop-2-en-1-one]",,> 1000 nM,C (key: “A”≤25% POC; “B”>25% POC−≤50% POC; “C”>50% POC),,
"C=CC(=O)N1CCN(c2nc(OC3CCN(C)CC3)nc3c2CCN(c2cc(O)cc4ccccc24)C3)CC1 [Example 22, 1-(4-(7-(3-hydroxynaphthalen-1-yl)-2-((1-methylpiperidin-4-yl)oxy)-5,6,7,8-tetrahydropyrido[3,4-d]pyrimidin-4-yl)piperazin-1-yl)prop-2-en-1-one]",C (“C”>50% POC),,,> 1000 nM,
"C=CC(=O)N1CCN(c2nc(OC[C@H]3CCCN3C)nc3c2CCN(c2cccc4ccccc24)C3)CC1CC#N (stereo partly drawn) [Example 183, 2-[4-[2-[[(2R)-1-methylpyrrolidin-2-yl]methoxy]-7-(1-naphthyl)-6,8-dihydro-5H-pyrido[3,4-d]pyrimidin-4-yl]-1-prop-2-enoyl-piperazin-2-yl]acetonitrile]",C (“C”>50% POC),,,,0.1 to 1000 nM
"C=CC(=O)N1CCN(c2nc(O[C@H](C)CN(C)C)nc3c2CCN(c2c(C)cccc2O)C3)CC1 [Example 95, (R)-1-(4-(2-((1-(dimethylamino)propan-2-yl)oxy)-7-(2-hydroxy-6-methylphenyl)-5,6,7,8-tetrahydropyrido[3,4-d]pyrimidin-4-yl)piperazin-1-yl)prop-2-en-1-one]",A (“A”≤25% POC),,,,> 1000 nM
"C=CC(=O)N1CCN(c2nc(O[C@H](C)CN(C)C)nc3c2CCN(c2cc(O)ccc2OC(F)(F)F)C3)CC1 [Example 78, (R)-1-(4-(2-((1-(dimethylamino)propan-2-yl)oxy)-7-(5-hydroxy-2-(trifluoromethoxy)phenyl)-5,6,7,8-tetrahydropyrido[3,4-d]pyrimidin-4-yl)piperazin-1-yl)prop-2-en-1-one]",C (“C”>50% POC),,,,> 1000 nM
"C=CC(=O)N1CCN(c2nc(O[C@H](C)CN(C)C)nc3c2CCN(c2cc(O)ccc2OC)C3)CC1 [Example 94, (R)-1-(4-(2-((1-(dimethylamino)propan-2-yl)oxy)-7-(5-hydroxy-2-methoxyphenyl)-5,6,7,8-tetrahydropyrido[3,4-d]pyrimidin-4-yl)piperazin-1-yl)prop-2-en-1-one]",A (“A”≤25% POC),,,,> 1000 nM
"C=CC(=O)N1CCN(c2ncnc3c2CC(C)N(c2cc(O)cc4ccccc24)C3)CC1 (centres unmarked) [Example 6, 1-(4-(7-(3-hydroxynaphthalen-1-yl)-6-methyl-5,6,7,8-tetrahydropyrido[3,4-d]pyrimidin-4-yl)piperazin-1-yl)prop-2-en-1-one]",B (“B”>25% POC−≤50% POC),,,,> 1000 nM
"C=CC(=O)N1CCN(c2ncnc3c2CCN(c2cc(O)ccc2F)C3)CC1 [Example 5, 1-(4-(7-(2-fluoro-5-hydroxyphenyl)-5,6,7,8-tetrahydropyrido[3,4-d]pyrimidin-4-yl)piperazin-1-yl)prop-2-en-1-one]",A (“A”≤25% POC),,,> 1000 nM,
"C=CC(=O)N1CCN(c2nc(O[C@H](C)CN(C)CC)nc3c2CCN(c2cc(O)cc4ccccc24)C3)CC1 [Example 131, 1-[4-[2-[(1R)-2-[ethyl(methyl)amino]-1-methyl-ethoxy]-7-(3-hydroxy-1-naphthyl)-6,8-dihydro-5H-pyrido[3,4-d]pyrimidin-4-yl]piperazin-1-yl]prop-2-en-1-one]",C (“C”>50% POC),,,,0.1 to 1000 nM
"C=CC(=O)N1CCN(c2nc(OC[C@@H]3CCCN3C)nc3c2CCN(c2cccc4ccccc24)C3)C[C@@H]1CC#N [Example 234, 2-((S)-1-acryloyl-4-(2-(((S)-1-methylpyrrolidin-2-yl)methoxy)-7-(naphthalen-1-yl)-5,6,7,8-tetrahydropyrido[3,4-d]pyrimidin-4-yl)piperazin-2-yl)acetonitrile]",C (“C”>50% POC),,,,0.1 to 1000 nM

# The next lines start with results.
POC (KRas G12C; [3]),SMILES,"IC50 ([1]; NCI-H358, 3 h)",POC (KRas G12C; 5 µM),"IC50 [1, 2]","IC50 [1, 4]"
C (“C”>50% POC),"C=CC(=O)N1CCN(c2nc(OC[C@@H]3CCCN3C)nc3c2CCN(c2ccccc2C(F)F)C3)CC1CC#N (stereo partly drawn) [Example 447, 2-(1-Acryloyl-4-(7-(2-(difluoromethyl)phenyl)-2-(((S)-1-methylpyrrolidin-2-yl)methoxy)-5,6,7,8-tetrahydropyrido[3,4-d]pyrimidin-4-yl)piperazin-2-yl)acetonitrile]",,,0.1 to 1000 nM,
C (“C”>50% POC),"C=CC(=O)N1CCN(c2nc(OC[C@@H]3CCCN3C)nc3c2CCN(c2cccc4ncccc24)C3)CC1CC#N (stereo partly drawn) [Example 264, 2-[4-[2-[[(2S)-1-methylpyrrolidin-2-yl]methoxy]-7-(5-quinolyl)-6,8-dihydro-5H-pyrido[3,4-d]pyrimidin-4-yl]-1-prop-2-enoyl-piperazin-2-yl]acetonitrile]",,,> 1000 nM,
C (“C”>50% POC),"C=CC(=O)N1CCN(c2nc(OC[C@@H]3CCCN3C)nc3c2CCN(c2cccc(F)c2C(F)(F)F)C3)C[C@@H]1CC#N [Example 328, 2-((S)-1-acryloyl-4-(7-(3-fluoro-2-(trifluoromethyl)phenyl)-2-(((S)-1-methylpyrrolidin-2-yl)methoxy)-5,6,7,8-tetrahydropyrido[3,4-d]pyrimidin-4-yl)piperazin-2-yl)acetonitrile]",,,0.1 to 1000 nM,
C (“C”>50% POC),"CN(C)C/C=C/C(=O)N1CCN(c2nc(OC[C@@H]3CCCN3C)nc3c2CCN(c2cccc(Cl)c2C(F)(F)F)C3)C[C@@H]1CC#N [Example 426, 2-((S)-4-(7-(3-chloro-2-(trifluoromethyl)phenyl)-2-(((S)-1-methylpyrrolidin-2-yl)methoxy)-5,6,7,8-tetrahydropyrido[3,4-d]pyrimidin-4-yl)-1-((E)-4-(dimethylamino)but-2-enoyl)piperazin-2-yl)acetonitrile]",,,0.1 to 1000 nM,
C (“C”>50% POC),"C=CC(=O)N1CCN(c2nc(OC[C@@H]3CCN(C)C3)nc3c2CCN(c2cc(O)cc4ccccc24)C3)CC1 [Example 110, (R)-1-(4-(7-(3-hydroxynaphthalen-1-yl)-2-((1-methylpyrrolidin-3-yl)methoxy)-5,6,7,8-tetrahydropyrido[3,4-d]pyrimidin-4-yl)piperazin-1-yl)prop-2-en-1-one]",,,0.1 to 1000 nM,
C (“C”>50% POC),"C=CC(=O)N1CCN(c2nc(OC[C@H]3CCCN3C)nc3c2CCN(c2cc(O)cc4ccccc24)C3)[C@@H](C)C1 [Example 203, 1-((S)-4-(7-(3-hydroxynaphthalen-1-yl)-2-(((R)-1-methylpyrrolidin-2-yl)methoxy)-5,6,7,8-tetrahydropyrido[3,4-d]pyrimidin-4-yl)-3-methylpiperazin-1-yl)prop-2-en-1-one]",,,0.1 to 1000 nM,
A (“A”≤25% POC),"C=CC(=O)N1CCN(c2nc(O[C@H](C)CN(C)C)nc3c2CCN(c2cc(O)c(Cl)c4ccccc24)C3)CC1 [Example 125, (R)-1-(4-(7-(4-chloro-3-hydroxynaphthalen-1-yl)-2-((1-(dimethylamino)propan-2-yl)oxy)-5,6,7,8-tetrahydropyrido[3,4-d]pyrimidin-4-yl)piperazin-1-yl)prop-2-en-1-one]",,,,> 1000 nM
C (“C”>50% POC),"C=CC(=O)N1CCN(c2nc(OC[C@@H]3C[C@@H](O)CN3C)nc3c2CCN(c2cccc(Cl)c2C(F)(F)F)C3)C[C@@H]1CC#N [Example 425, 2-((S)-1-acryloyl-4-(7-(3-chloro-2-(trifluoromethyl)phenyl)-2-(((2S,4R)-4-hydroxy-1-methylpyrrolidin-2-yl)methoxy)-5,6,7,8-tetrahydropyrido[3,4-d]pyrimidin-4-yl)piperazin-2-yl)acetonitrile]",,,0.1 to 1000 nM,
A (“A”≤25% POC),"C=CC(=O)N1CCN(c2nc(OCCCN3CCOCC3)nc3c2CCN(c2ccc(O)cc2OC(F)(F)F)C3)CC1 [Example 106, 1-(4-(7-(4-hydroxy-2-(trifluoromethoxy)phenyl)-2-(3-morpholinopropoxy)-5,6,7,8-tetrahydropyrido[3,4-d]pyrimidin-4-yl)piperazin-1-yl)prop-2-en-1-one]",,,,> 1000 nM
C (“C”>50% POC),"C=CC(=O)N1CCN(c2nc(OC[C@@H]3CCCN3C)nc3c2CCN(c2ccccc2Cl)C3)CC1CC#N (stereo partly drawn) [Example 229, 2-(1-acryloyl-4-(7-(2-chlorophenyl)-2-(((S)-1-methylpyrrolidin-2-yl)methoxy)-5,6,7,8-tetrahydropyrido[3,4-d]pyrimidin-4-yl)piperazin-2-yl)acetonitrile]",,,0.1 to 1000 nM,
C (“C”>50% POC),"C=CC(=O)N1CCN(c2nc(OC[C@@H]3CCCN3C)nc3c2CCN(c2cc(F)ccc2OC(F)(F)F)C3)CC1CC#N (stereo partly drawn) [Example 225, 2-(1-acryloyl-4-(7-(5-fluoro-2-(trifluoromethoxy)phenyl)-2-(((S)-1-methylpyrrolidin-2-yl)methoxy)-5,6,7,8-tetrahydropyrido[3,4-d]pyrimidin-4-yl)piperazin-2-yl)acetonitrile]",,,0.1 to 1000 nM,
C (“C”>50% POC),"C=CC(=O)N1CCN(c2nc(OC[C@@H]3C[C@@H](F)CN3C)nc3c2CCN(c2cccc4ccccc24)C3)C[C@@H]1CC#N [Example 306, 2-[(2S)-4-[2-[[(2S,4R)-4-fluoro-1-methyl-pyrrolidin-2-yl]methoxy]-7-(1-naphthyl)-6,8-dihydro-5H-pyrido[3,4-d]pyrimidin-4-yl]-1-prop-2-enoyl-piperazin-2-yl]acetonitrile]",,,0.1 to 1000 nM,
